The text below walks through data of patent US20220370440A1 (Lead Discovery Center GmbH, priority 2018, published 2022).

Data set [1] concerns the target EGFR wt (Homo sapiens, UniProt P00533). Briefly: EGFR wt Lance assay. Type of data set: biochemical. Here is the method: (§1) Inhibition is indicated as […] [nM] (“−”=not measured). Compounds having an activity designated as “A” provided an IC50≤100 nM; compounds having an activity designated as “B” provided an 100 nM<IC50≤500 nM; compounds having an activity designated as “C” provided an 500 nM<IC50≤1000 nM; compounds having an activity designated as “D” provided an 1000 nM<IC50≤100000 nM; and compounds having an activity designated as “E” provided an IC50>10000 nM.

A short description of data set [2]: Metabolic stability in mouse liver microsomes without cofactor NADPH. The data set is classed as in vitro ADME. Conditions: 3 μM test compound, mouse liver microsomes, without NADPH, 50 min, 37° C., LC-MS/MS. The procedure, abridged:
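Cofactor-free incubation: no NADPH added to mouse liver microsomes, with compound at 3 μM and 37° C. Remaining parent was quantified by LC-MS/MS at time points up to 50 minutes to track depletion.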
(Microsomes from liver hold many membrane-bound enzymes, among them those of drug oxidation.)

For data set [3], the system named is H1975. In words: H1975 CellTiter-Glo. The data set is classed as cell-based. Conditions: Homo sapiens, NCI-H1975; 72 h compound incubation; read-out: H1975 CTG IC50. The procedure, abridged:
(§2)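 Seed cells; incubate 24 h at 37° C., 5% CO2; add compound in DMSO over a concentration range; incubate 72 h; add CellTiter-Glo reagent, stabilise 10 min at room temperature; read luminescence; fit IC50.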
For orientation: In ATP-based viability assays light output follows the ATP content of the culture.

Data set [4] concerns the target EGFR T790ML858R (Homo sapiens, UniProt P00533, L858R/T790M). In words: EGFR T790ML858R Lance assay. Type of data set: biochemical. As to the method: as §1
Data set [5] addresses EGFR Exon 20 INSNPH Ba/F3 (Homo sapiens, UniProt P00533, DUP771-773, cells depend on it). Briefly: EGFR Exon 20 INSNPH Ba/F3 CellTiter-Glo. Type of data set: cell-based. Conditions: CellTiter-Glo, 72 h, read-out: EGFR Exon 20 INSNPH Ba/F3 CTG IC50. The procedure, abridged: (§3)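 Ba/F3 cells were seeded, left 24 h at 37 °C/5% CO2, then exposed to compound dilutions in DMSO for 72 h. Viability was read as ATP luminescence (CellTiter-Glo) and IC50 fitted from dose–response curves; DMSO and 10 μM staurosporine defined the controls, and plates needed Z′ ≥0.5.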

The target in data set [6] is T1, HER2 INS YVMA (Homo sapiens, UniProt P04626, INS775YVMA).
T1 construct: purchased DPF
In words: Lance Kinase Activity Assay, HER2 INS YVMA (Her2 Exon 20 INSYVMA Lance). The data set is classed as biochemical. Conditions: biochemical Lance assay. The procedure, abridged:
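IC50 was fitted to sigmoidal curves of TR-FRET signal (665 and 615 nm emission after 340 nm excitation) from an Eu anti-phospho antibody binding the phosphorylated ULight peptide. The ATP-started reaction ran 1 h at RT and was then quenched with 10 mM EDTA plus antibody for a further 1 h. Compounds were tested as 8-point, 3-fold dilutions.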

For data set [7], the target named is Her2 Exon 20 INSYVMA Ba/F3 (Homo sapiens, UniProt P04626, DUP772-775, cells depend on it). In words: Her2 Exon 20 INSYVMA Ba/F3 CellTiter-Glo. Conditions: CellTiter-Glo, 72 h, read-out: Her2 Exon 20 INSYVMA Ba/F3 CTG IC50. Type of data set: cell-based. The procedure, abridged:
as §3

In data set [8] the test system is A431. In words: A431 CellTiter-Glo. Type of data set: cell-based. Conditions: Homo sapiens, A-431; 72 h compound incubation; read-out: A431 CTG IC50. In a few lines: as §2
The test system of data set [9] is H1781. In words: H1781 CellTiter-Glo. The data set is classed as cell-based. Conditions: NCI-H1781; 72 h compound incubation; read-out: H1781 CTG IC50. The procedure, abridged: as §2

T1 sequence (P04626 with tags, fused parts or gaps INS775YVMA): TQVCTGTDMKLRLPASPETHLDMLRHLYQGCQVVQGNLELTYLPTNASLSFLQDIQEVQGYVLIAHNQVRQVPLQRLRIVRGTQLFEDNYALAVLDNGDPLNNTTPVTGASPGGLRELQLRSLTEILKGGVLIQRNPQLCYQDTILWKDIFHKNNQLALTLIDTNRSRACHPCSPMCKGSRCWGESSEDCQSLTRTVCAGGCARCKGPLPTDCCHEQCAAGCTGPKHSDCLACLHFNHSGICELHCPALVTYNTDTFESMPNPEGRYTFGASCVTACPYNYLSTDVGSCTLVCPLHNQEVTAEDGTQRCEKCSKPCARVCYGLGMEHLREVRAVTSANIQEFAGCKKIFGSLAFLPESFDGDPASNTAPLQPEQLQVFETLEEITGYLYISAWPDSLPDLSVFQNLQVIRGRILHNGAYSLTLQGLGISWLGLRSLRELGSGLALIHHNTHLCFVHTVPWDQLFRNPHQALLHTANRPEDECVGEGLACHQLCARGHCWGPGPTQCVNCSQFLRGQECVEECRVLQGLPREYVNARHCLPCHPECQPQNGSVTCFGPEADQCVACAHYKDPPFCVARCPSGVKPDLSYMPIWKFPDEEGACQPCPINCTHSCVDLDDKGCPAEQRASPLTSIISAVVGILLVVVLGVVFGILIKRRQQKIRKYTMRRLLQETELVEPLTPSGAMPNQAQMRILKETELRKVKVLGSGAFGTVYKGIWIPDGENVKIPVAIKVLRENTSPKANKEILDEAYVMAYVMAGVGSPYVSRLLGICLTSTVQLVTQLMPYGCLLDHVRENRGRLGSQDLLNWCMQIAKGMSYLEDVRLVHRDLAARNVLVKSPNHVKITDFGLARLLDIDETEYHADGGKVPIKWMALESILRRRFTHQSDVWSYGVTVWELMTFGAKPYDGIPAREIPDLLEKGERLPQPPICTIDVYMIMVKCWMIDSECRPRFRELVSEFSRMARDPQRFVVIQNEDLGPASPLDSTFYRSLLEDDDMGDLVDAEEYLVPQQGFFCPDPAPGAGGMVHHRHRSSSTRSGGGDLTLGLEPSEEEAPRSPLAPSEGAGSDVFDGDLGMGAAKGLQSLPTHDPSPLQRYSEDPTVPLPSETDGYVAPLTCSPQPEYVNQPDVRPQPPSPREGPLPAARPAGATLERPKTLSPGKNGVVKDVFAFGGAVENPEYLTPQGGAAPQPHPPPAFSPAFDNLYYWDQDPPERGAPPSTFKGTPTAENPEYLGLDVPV
Sequence of EGFR Exon 20 INSNPH Ba/F3 (P00533 with tags, fused parts or gaps DUP771-773): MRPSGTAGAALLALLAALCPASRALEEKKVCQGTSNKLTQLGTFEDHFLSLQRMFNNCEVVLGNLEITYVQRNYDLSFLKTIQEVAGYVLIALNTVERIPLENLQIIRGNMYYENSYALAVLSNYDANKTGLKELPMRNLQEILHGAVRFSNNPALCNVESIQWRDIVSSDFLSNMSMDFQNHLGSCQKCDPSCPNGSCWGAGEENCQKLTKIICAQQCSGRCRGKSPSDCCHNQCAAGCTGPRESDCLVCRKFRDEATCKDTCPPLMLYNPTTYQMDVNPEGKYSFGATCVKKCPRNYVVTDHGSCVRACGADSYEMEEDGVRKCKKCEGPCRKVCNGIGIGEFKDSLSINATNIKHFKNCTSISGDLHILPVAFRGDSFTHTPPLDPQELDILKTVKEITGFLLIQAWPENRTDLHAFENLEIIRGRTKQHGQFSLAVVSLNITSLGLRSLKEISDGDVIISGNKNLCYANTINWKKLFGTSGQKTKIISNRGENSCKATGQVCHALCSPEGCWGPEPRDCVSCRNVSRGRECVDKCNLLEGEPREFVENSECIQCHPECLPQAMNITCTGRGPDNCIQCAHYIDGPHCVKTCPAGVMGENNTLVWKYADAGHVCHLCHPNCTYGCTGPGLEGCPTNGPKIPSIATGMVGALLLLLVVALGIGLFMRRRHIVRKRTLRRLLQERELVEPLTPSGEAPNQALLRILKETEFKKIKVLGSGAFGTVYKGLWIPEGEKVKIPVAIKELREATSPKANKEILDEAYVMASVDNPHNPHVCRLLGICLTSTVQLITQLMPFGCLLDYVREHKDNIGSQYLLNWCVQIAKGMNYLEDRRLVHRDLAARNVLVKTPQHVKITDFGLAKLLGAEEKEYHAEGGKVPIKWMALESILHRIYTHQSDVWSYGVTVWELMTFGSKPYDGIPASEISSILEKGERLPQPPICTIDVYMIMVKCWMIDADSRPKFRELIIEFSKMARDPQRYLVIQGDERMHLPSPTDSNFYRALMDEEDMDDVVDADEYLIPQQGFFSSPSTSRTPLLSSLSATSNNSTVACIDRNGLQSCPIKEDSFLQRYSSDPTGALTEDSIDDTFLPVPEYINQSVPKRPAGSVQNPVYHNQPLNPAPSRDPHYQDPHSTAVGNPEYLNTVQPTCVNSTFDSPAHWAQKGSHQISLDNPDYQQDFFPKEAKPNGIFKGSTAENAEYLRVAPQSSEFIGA
Sequence of EGFR wt (P00533 25-1210): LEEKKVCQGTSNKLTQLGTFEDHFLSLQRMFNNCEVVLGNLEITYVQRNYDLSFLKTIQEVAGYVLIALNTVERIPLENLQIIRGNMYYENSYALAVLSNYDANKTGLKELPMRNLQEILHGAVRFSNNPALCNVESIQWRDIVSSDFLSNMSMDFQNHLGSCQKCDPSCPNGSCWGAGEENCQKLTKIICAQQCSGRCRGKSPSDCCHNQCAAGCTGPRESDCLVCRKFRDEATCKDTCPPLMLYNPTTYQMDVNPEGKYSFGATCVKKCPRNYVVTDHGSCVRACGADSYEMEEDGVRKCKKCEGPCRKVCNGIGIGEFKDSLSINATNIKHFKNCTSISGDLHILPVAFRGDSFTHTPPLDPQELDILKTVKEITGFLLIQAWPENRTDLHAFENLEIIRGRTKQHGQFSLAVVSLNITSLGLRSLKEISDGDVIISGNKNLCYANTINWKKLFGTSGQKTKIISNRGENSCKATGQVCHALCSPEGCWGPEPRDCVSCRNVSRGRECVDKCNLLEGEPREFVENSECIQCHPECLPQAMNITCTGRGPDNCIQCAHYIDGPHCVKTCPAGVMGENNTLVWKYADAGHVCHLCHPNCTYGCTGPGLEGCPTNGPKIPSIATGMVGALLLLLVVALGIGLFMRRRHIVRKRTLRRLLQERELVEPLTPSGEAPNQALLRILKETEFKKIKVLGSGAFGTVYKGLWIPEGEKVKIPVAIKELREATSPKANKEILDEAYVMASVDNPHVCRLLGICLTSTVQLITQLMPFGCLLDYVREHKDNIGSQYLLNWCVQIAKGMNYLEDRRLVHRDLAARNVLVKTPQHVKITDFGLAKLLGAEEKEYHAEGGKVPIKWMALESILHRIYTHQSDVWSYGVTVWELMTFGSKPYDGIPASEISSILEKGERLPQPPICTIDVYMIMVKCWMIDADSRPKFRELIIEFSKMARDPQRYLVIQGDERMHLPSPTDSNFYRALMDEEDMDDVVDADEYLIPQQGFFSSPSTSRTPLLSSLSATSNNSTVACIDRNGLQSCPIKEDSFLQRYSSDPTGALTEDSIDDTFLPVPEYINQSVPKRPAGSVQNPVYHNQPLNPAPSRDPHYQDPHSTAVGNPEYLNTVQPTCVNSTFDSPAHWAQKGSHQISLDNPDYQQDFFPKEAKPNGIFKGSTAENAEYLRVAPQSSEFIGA
Sequence of EGFR T790ML858R (P00533 25-1210 T790M/L858R): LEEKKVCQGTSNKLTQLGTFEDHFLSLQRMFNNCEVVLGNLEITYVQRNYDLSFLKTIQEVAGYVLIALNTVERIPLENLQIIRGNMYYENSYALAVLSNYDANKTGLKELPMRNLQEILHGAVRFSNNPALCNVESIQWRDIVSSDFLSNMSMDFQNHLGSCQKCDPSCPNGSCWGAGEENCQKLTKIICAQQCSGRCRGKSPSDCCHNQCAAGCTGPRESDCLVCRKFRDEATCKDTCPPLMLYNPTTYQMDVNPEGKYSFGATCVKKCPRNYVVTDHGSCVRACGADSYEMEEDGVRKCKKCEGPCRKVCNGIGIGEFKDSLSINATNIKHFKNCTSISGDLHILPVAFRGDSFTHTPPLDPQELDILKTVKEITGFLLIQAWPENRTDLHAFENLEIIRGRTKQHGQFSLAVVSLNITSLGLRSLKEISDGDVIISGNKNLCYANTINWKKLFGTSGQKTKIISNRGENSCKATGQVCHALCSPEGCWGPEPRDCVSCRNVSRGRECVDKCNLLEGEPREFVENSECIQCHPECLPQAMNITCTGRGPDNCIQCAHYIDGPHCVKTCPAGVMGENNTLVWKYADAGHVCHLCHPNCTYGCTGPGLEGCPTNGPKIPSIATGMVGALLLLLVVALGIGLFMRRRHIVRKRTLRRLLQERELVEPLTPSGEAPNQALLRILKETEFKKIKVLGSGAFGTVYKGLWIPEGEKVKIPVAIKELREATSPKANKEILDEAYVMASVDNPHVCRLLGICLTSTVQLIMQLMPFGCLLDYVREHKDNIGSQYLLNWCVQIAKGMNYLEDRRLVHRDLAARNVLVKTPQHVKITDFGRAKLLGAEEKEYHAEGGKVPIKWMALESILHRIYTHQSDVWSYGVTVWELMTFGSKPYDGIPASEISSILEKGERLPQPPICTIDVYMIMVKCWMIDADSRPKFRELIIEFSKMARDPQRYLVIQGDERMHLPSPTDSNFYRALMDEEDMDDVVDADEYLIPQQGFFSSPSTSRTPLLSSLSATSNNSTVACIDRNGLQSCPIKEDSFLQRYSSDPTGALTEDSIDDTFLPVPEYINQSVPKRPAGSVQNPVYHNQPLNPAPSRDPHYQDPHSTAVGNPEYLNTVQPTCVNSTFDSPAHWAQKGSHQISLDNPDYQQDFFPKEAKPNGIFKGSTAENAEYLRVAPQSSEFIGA

`C=CC(=O)Nc1cc(-c2c(-c3ccnc(N4CCN(C)CC4)c3)[nH]c3nccc(Cl)c23)ccc1C` [Example 26, N-(5-(4-chloro-2-(2-(4-methylpiperazin-1-yl)pyridin-4-yl)-1H-pyrrolo[2,3-b]pyridin-3-yl)-2-methylphenyl)acrylamide]: the IC50 in [1] was at most 100 nM; in [3], at most 100 nM; in [4] it was at most 100 nM; in data set [6], at most 100 nM; in data set [8] it was 100 to 500 nM; in data set [9], 500 to 1000 nM. Also, the “Stability in presence of mouse liver microsomes without cofactor NADPH [% remaining after 50 min]” value in [2] is reported as over 99 % remaining after 50 min. Further, the GI50 in data set [5] and in [7] was 100 to 500 nM in each case.
As for `C=CC(=O)Nc1cc(-c2c(-c3ccc(CN4CCOCC4)cc3)[nH]c3nccc(OC)c23)ccc1C` [Example 75, N-(5-(4-methoxy-2-(4-(morpholinomethyl)phenyl)-1H-pyrrolo[2,3-b]pyridin-3-yl)-2-methylphenyl)acrylamide], the IC50 is at most 100 nM in data set [1]; at most 100 nM in data set [3]; at most 100 nM in data set [4]; at most 100 nM in data set [6]; 100 to 500 nM in data set [8]; 100 to 500 nM in [9]. Besides, the “Stability in presence of mouse liver microsomes without cofactor NADPH [% remaining after 50 min]” value in data set [2] is reported as over 99 % remaining after 50 min. For the same molecule, the GI50 was at most 100 nM in [5] and 100 to 500 nM in data set [7].
For `C=CC(=O)Nc1cc(-c2c(-c3cccc(OCCN(C)C)c3)[nH]c3nccc(Cl)c23)ccc1C` [Example 28, N-(5-(4-chloro-2-(3-(2-(dimethylamino)ethoxy)phenyl)-1H-pyrrolo[2,3-b]pyridin-3-yl)-2-methylphenyl)acrylamide], the IC50 in data set [1] was at most 100 nM; in data set [3], at most 100 nM; in data set [4] it was at most 100 nM; in data set [6], at most 100 nM; in data set [8] it was 100 to 500 nM; in data set [9], 100 to 500 nM. The “Stability in presence of mouse liver microsomes without cofactor NADPH [% remaining after 50 min]” value in data set [2] is reported as over 99 % remaining after 50 min. Moreover, the GI50 in data set [5] and in [7] was 100 to 500 nM throughout.
In the case of `C=CC(=O)N1CCc2ccc(-c3c(-c4ccc(N5CCN(C)CC5)cc4)[nH]c4nccc(Cl)c34)cc21` [Example 56, 1-(6-(4-chloro-2-(4-(4-methylpiperazin-1-yl)phenyl)-1H-pyrrolo[2,3-b]pyridin-3-yl)indolin-1-yl)prop-2-en-1-one], the IC50 in [1] is at most 100 nM; in data set [3], at most 100 nM; in data set [4] it was at most 100 nM; in data set [6], at most 100 nM; in data set [8], 500 to 1000 nM; in data set [9] it was 500 to 1000 nM. Moreover, the “Stability in presence of mouse liver microsomes without cofactor NADPH [% remaining after 50 min]” value in [2] is over 99 % remaining after 50 min. The GI50 in data set [5] and in data set [7] was 100 to 500 nM throughout.
For `C=CC(=O)N1CCc2ccc(-c3c(-c4ccc(N5CCN(C)CC5)c(F)c4)[nH]c4nccc(Cl)c34)cc21` [Example 57, 1-(6-(4-chloro-2-(3-fluoro-4-(4-methylpiperazin-1-yl)phenyl)-1H-pyrrolo[2,3-b]pyridin-3-yl)indolin-1-yl)prop-2-en-1-one], the IC50 in [1] was at most 100 nM; in data set [3], 100 to 500 nM; in data set [4], at most 100 nM; in data set [6] it was at most 100 nM; in data set [8], 1000 to 100000 nM; in data set [9], 1000 to 100000 nM. Moreover, the “Stability in presence of mouse liver microsomes without cofactor NADPH [% remaining after 50 min]” value in data set [2] was over 99 % remaining after 50 min. Moreover, the values for the GI50 in data set [5] and in data set [7] were 500 to 1000 nM and 100 to 500 nM, respectively.
For the molecule `C=CC(=O)Nc1cc(-c2c(-c3ccc(N4CCN(C)CC4)nc3)[nH]c3ncccc23)ccc1C` [Example 78, N-(2-methyl-5-(2-(6-(4-methylpiperazin-1-yl)pyridin-3-yl)-1H-pyrrolo[2,3-b]pyridin-3-yl)phenyl)acrylamide 2,2,2-trifluoroacetate], the IC50 in data set [1] is at most 100 nM; in data set [3], at most 100 nM; in [4], at most 100 nM; in data set [6] it was 100 to 500 nM; in [8] it was 100 to 500 nM; in [9], 500 to 1000 nM. For the same molecule, the “Stability in presence of mouse liver microsomes without cofactor NADPH [% remaining after 50 min]” value in [2] is over 99 % remaining after 50 min. Further, the values for the GI50 in data set [5] and in data set [7] were 500 to 1000 nM and 100 to 500 nM, respectively.
Take `C=CC(=O)Nc1cc(-c2c(-c3ccc(CCN(C)C)cc3)[nH]c3nccc(Cl)c23)ccc1C` [Example 4, N-(5-(4-chloro-2-(4-(2-(dimethylamino)ethyl)phenyl)-1H-pyrrolo[2,3-b]pyridin-3-yl)-2-methylphenyl)acrylamide]: the IC50 was at most 100 nM in [1]; at most 100 nM in data set [3]; at most 100 nM in data set [4]; at most 100 nM in data set [6]; 100 to 500 nM in [8]; 100 to 500 nM in data set [9]. For the same molecule, in [2], the “Stability in presence of mouse liver microsomes without cofactor NADPH [% remaining after 50 min]” value is given as over 99 % remaining after 50 min. For the same molecule, the GI50 in data set [5] and in [7] was 100 to 500 nM in each case.
Turning to `C=CC(=O)Nc1cc(-c2c(-c3ccc(C4CCN(C)CC4)cc3)[nH]c3nccc(Cl)c23)ccc1C` [Example 3, N-(5-(4-chloro-2-(4-(1-methylpiperidin-4-yl)phenyl)-1H-pyrrolo[2,3-b]pyridin-3-yl)-2-methylphenyl)acrylamide], the IC50 in data set [1] is at most 100 nM; in data set [3] it was at most 100 nM; in data set [4] it was at most 100 nM; in data set [6], at most 100 nM; in data set [8], 100 to 500 nM; in [9], 100 to 500 nM. For the same molecule, the “Stability in presence of mouse liver microsomes without cofactor NADPH [% remaining after 50 min]” value in data set [2] is listed as over 99 % remaining after 50 min. Moreover, the GI50 in [5] and in data set [7] was at most 100 nM in each case.
Consider `C=CC(=O)Nc1cc(-c2c(-c3ccc(OCCN(C)C)cc3)[nH]c3nccc(Cl)c23)ccc1C` [Example 18, N-(5-(4-chloro-2-(4-(2-(dimethylamino)ethoxy)phenyl)-1H-pyrrolo[2,3-b]pyridin-3-yl)-2-methylphenyl)acrylamide], for which the IC50 in [1] is at most 100 nM; in data set [3], at most 100 nM; in [4] it was at most 100 nM; in data set [6], at most 100 nM; in data set [8], 100 to 500 nM; in [9], 100 to 500 nM. Also, the “Stability in presence of mouse liver microsomes without cofactor NADPH [% remaining after 50 min]” value in [2] is 90 % remaining after 50 min. Besides, the GI50 in data set [5] was at most 100 nM; in [7], 100 to 500 nM.
On to `C=CC(=O)Nc1cc(-c2c(-c3ccc(C(=O)N4CCOCC4)cc3)[nH]c3nccc(Cl)c23)ccc1C` [Example 11, N-(5-(4-chloro-2-(4-(morpholine-4-carbonyl)phenyl)-1H-pyrrolo[2,3-b]pyridin-3-yl)-2-methylphenyl)acrylamide], for which the IC50 in data set [1] is at most 100 nM; in data set [3] it was at most 100 nM; in [4], at most 100 nM; in data set [6], at most 100 nM; in data set [8], 100 to 500 nM; in data set [9], 500 to 1000 nM. The “Stability in presence of mouse liver microsomes without cofactor NADPH [% remaining after 50 min]” value in data set [2] is reported as over 99 % remaining after 50 min. Moreover, the GI50 in data set [5] and in data set [7] was 100 to 500 nM in each case.
With `C=CC(=O)N1CCc2ccc(-c3c(-c4ccnc(N5CCN(C)CC5)c4)[nH]c4nccc(Cl)c34)cc21` [Example 59, 1-(6-(4-chloro-2-(2-(4-methylpiperazin-1-yl)pyridin-4-yl)-1H-pyrrolo[2,3-b]pyridin-3-yl)indolin-1-yl)prop-2-en-1-one], the IC50 in data set [1] is at most 100 nM; in data set [3], at most 100 nM; in data set [4], at most 100 nM; in data set [6] it was at most 100 nM; in data set [8], 100 to 500 nM; in [9], 100 to 500 nM. For the same molecule, in [2], the “Stability in presence of mouse liver microsomes without cofactor NADPH [% remaining after 50 min]” value was over 99 % remaining after 50 min. The GI50 in data set [5] and in [7] was 100 to 500 nM throughout.

A word on the IC50: it is the point on the concentration scale where inhibition reaches its midpoint.
